What was measured:
bedstraw = assay: Test B pre/postemergence bedstraw; assay type: in vivo, Galium aparine; conditions: Postemergence, Rate 62 g/ha; scale 0 to 10, 0 is no effect, 10 is complete control
Summary of the method: (§1)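 Test chemicals in a non-phytotoxic solvent mixture with surfactant were sprayed preemergence onto planted seeds and postemergence onto plants 2 to 18 cm tall (1- to 4-leaf stage). After twelve to sixteen days in a greenhouse, injury was visually rated against untreated controls from 0 (no effect) to 10 (complete control).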

crabgrass = assay: Test B pre/postemergence crabgrass; assay type: in vivo, Digitaria sanguinalis
Summary of the method: as §1

corn = assay: Test B pre/postemergence corn; assay type: in vivo, Zea mays
Summary of the method: as §1

bamyardgrass = assay: Test B flood test barnyardgrass; assay type: in vivo, Echinochloa crus-galli
Summary of the method: (§2)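 Flood test on plants grown to the 2-leaf stage; treated plants kept in greenhouse twelve to sixteen days, then visually rated against controls on a 0 (no effect) to 10 (complete control) scale.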

rape = assay: Test B pre/postemergence rape; assay type: in vivo, Brassica napus
Summary of the method: as §1

giant foxtail = assay: Test B pre/postemergence giant foxtail; assay type: in vivo, Setaria faberii
Summary of the method: as §1

velvetleaf = assay: Test B pre/postemergence velvetleaf; assay type: in vivo, Abutilon theophrasti
Summary of the method: as §1

purple nutsedge = assay: Test B pre/postemergence purple nutsedge; assay type: in vivo, Cyperus rotundus
Summary of the method: as §1

surinam grass = assay: Test B pre/postemergence surinam grass; assay type: in vivo, Brachiaria decumbens
Summary of the method: as §1

wild oat = assay: Test B pre/postemergence wild oat; assay type: in vivo, Avena fatua
Summary of the method: as §1

wheat = assay: Test B pre/postemergence wheat; assay type: in vivo, Triticum aestivum
Summary of the method: as §1

morningglory = assay: Test B pre/postemergence morningglory; assay type: in vivo, Ipomoea hederacea
Summary of the method: as §1

pigweed = assay: Test B pre/postemergence pigweed; assay type: in vivo, Amaranthus retroflexus
Summary of the method: as §1

rice = assay: Test B flood test rice; assay type: in vivo, Oryza sativa
Summary of the method: as §2

sugar beet = assay: Test B pre/postemergence sugar beet; assay type: in vivo, Beta vulgaris
Summary of the method: as §1

duck salad = assay: Test B flood test duck salad; assay type: in vivo, Heteranthera limosa
Summary of the method: as §2

soybean = assay: Test B pre/postemergence soybean; assay type: in vivo, Glycine max
Summary of the method: as §1

blackgrass = assay: Test B pre/postemergence blackgrass; assay type: in vivo, Alopecurus myosuroides
Summary of the method: as §1

smallflower flatsedge = assay: Test B flood test smallflower flatsedge; assay type: in vivo, Cyperus difformis
Summary of the method: as §2

cocklebur = assay: Test B pre/postemergence cocklebur; assay type: in vivo, Xanthium strumarium
Summary of the method: as §1

[1] = Postemergence, Rate 62 g/ha, scale 0 to 10, 0 is no effect, 10 is complete control
[2] = Postemergence, Rate 125 g/ha, scale of 0 to 10 where 0 is no effect and 10 is complete control
[3] = Postemergence, Rate 250 g/ha, scale of 0 to 10, 0 is no effect, 10 is complete control
[4] = Postemergence, Rate 500 g/ha, scale of 0 to 10 where 0 is no effect and 10 is complete control
[5] = Preemergence, Rate 62 g/ha, scale of 0 to 10 where 0 is no effect and 10 is complete control
[6] = Preemergence, Rate 125 g/ha, scale of 0 to 10 where 0 is no effect and 10 is complete control
[7] = Preemergence, Rate 250 g/ha, scale 0 to 10 (0 no effect, 10 complete control)
[8] = Preemergence, Rate 500 g/ha, scale of 0 to 10 where 0 is no effect and 10 is complete control
[9] = Rate 62 g/ha, flood test species, Pre-emergence, visual evaluation after twelve to sixteen days
[10] = Rate 125 g/ha, under heading Pre-emergence, flood test species, visual evaluation after twelve to sixteen days
[11] = Rate 250 g/ha, Pre-emergence (flood test species), scale 0 to 10, 0 is no effect, 10 is complete control
[12] = Rate 500 g/ha, Pre-emergence section of Table B, 0 to 10 scale (0 no effect, 10 complete control)

CC(C)N(C(=O)n1oc(=O)n(CCCC#N)c1=O)c1ccc(F)cc1 [Compound 647]
Plant response rating, Bedstraw (bedstraw): 0
Plant response rating, Crabgrass (crabgrass; [1]): 7
Crabgrass plant response rating (crabgrass; [2]): 9
Crabgrass plant response rating (crabgrass; [3]): 9
Plant response rating, Crabgrass (crabgrass; [4]): 9
Crabgrass plant response rating (crabgrass; [5]): 8
Crabgrass plant response rating (crabgrass; [6]): 8
Plant response rating, Crabgrass (crabgrass; [7]): 9
Plant response rating, Crabgrass (crabgrass; [8]): 9
Plant response rating, Corn (corn; [1]): 0
Corn plant response rating (corn; [2]): 2
Corn plant response rating (corn; [3]): 5
Plant response rating, Corn (corn; [4]): 6
Corn plant response rating (corn; [5]): 0
Corn plant response rating (corn; [6]): 3
Plant response rating, Corn (corn; [7]): 5
Plant response rating, Corn (corn; [8]): 10
Plant response rating, Barnyardgrass (0 to 10 scale, 0 is no effect, 10 is complete control) (bamyardgrass; [9]): 0
Barnyardgrass plant response rating (0 to 10 scale, 0 is no effect, 10 is complete control) (bamyardgrass; [10]): 0
Barnyardgrass plant response rating (bamyardgrass; [11]): 0
Barnyardgrass plant response rating (bamyardgrass; [12]): 0
Plant response rating, Rape (rape; [1]): 0
Rape plant response rating (rape; [2]): 0
Plant response rating, Rape (rape; [4]): 7
Rape plant response rating (rape; [5]): 5
Rape plant response rating (rape; [6]): 8
Plant response rating, Rape (rape; [7]): 10
Plant response rating, Rape (rape; [8]): 10
Plant response rating, Giant foxtail (giant foxtail; [1]): 8
Giant foxtail plant response rating (giant foxtail; [2]): 9
Giant foxtail plant response rating (giant foxtail; [3]): 9
Plant response rating, Giant foxtail (giant foxtail; [4]): 9
Giant foxtail plant response rating (giant foxtail; [5]): 9
Giant foxtail plant response rating (giant foxtail; [6]): 10
Plant response rating, Giant foxtail (giant foxtail; [7]): 10
Plant response rating, Giant foxtail (giant foxtail; [8]): 10
Plant response rating, Velvetleaf (velvetleaf; [1]): 5
Velvetleaf plant response rating (velvetleaf; [2]): 5
Velvetleaf plant response rating (velvetleaf; [5]): 6
Velvetleaf plant response rating (velvetleaf; [6]): 8
Plant response rating, Velvetleaf (velvetleaf; [7]): 8
Plant response rating, Velvetleaf (velvetleaf; [8]): 9
Plant response rating, Nutsedge (purple nutsedge; [1]): 0
Nutsedge plant response rating (purple nutsedge; [2]): 0
Plant response rating, Nutsedge (purple nutsedge; [4]): 6
Nutsedge plant response rating (purple nutsedge; [5]): 0
Nutsedge plant response rating (purple nutsedge; [6]): 0
Plant response rating, B. signalgrass (surinam grass; [1]): 4
Plant response rating, B. signalgrass (surinam grass; [2]): 6
B. signalgrass plant response rating (surinam grass; [3]): 7
Plant response rating, B. signalgrass (surinam grass; [4]): 8
B. signalgrass plant response rating (surinam grass; [5]): 3
B. signalgrass plant response rating (surinam grass; [6]): 7
Plant response rating, B. signalgrass (surinam grass; [7]): 9
Plant response rating, B. signalgrass (surinam grass; [8]): 10
Plant response rating, Wild oats (wild oat; [1]): 0
Wild oats plant response rating (wild oat; [2]): 0
Wild oats plant response rating (wild oat; [5]): 5
Wild oats plant response rating (wild oat; [6]): 8
Plant response rating, Wild oats (wild oat; [7]): 9
Plant response rating, Wild oats (wild oat; [8]): 10
Plant response rating, Wheat (wheat; [1]): 0
Wheat plant response rating (wheat; [2]): 3
Wheat plant response rating (wheat; [5]): 1
Wheat plant response rating (wheat; [6]): 6
Plant response rating, Wheat (wheat; [7]): 8
Plant response rating, Wheat (wheat; [8]): 8
Plant response rating, Morningglory (morningglory; [1]): 0
Morningglory plant response rating (morningglory; [2]): 0
Morningglory plant response rating (morningglory; [3]): 2
Plant response rating, Morningglory (morningglory; [4]): 6
Morningglory plant response rating (morningglory; [5]): 0
Morningglory plant response rating (morningglory; [6]): 0
Plant response rating, Morningglory (morningglory; [7]): 7
Plant response rating, Morningglory (morningglory; [8]): 7
Plant response rating, Redroot pigweed (pigweed; [1]): 0
Redroot pigweed plant response rating (pigweed; [2]): 4
Redroot pigweed plant response rating (pigweed; [5]): 10
Redroot pigweed plant response rating (pigweed; [6]): 10
Plant response rating, Redroot pigweed (pigweed; [7]): 10
Plant response rating, Redroot pigweed (pigweed; [8]): 10
Plant response rating, Rice (0 to 10 scale, 0 is no effect, 10 is complete control) (rice; [9]): 0
Rice plant response rating (0 to 10 scale, 0 is no effect, 10 is complete control) (rice; [10]): 0
Rice plant response rating (rice; [11]): 0
Rice plant response rating (rice; [12]): 0
Plant response rating, Sugarbeets (sugar beet; [1]): 1
Sugarbeets plant response rating (sugar beet; [2]): 2
Sugarbeets plant response rating (sugar beet; [5]): 7
Sugarbeets plant response rating (sugar beet; [6]): 8
Plant response rating, Sugarbeets (sugar beet; [7]): 8
Plant response rating, Sugarbeets (sugar beet; [8]): 8
Plant response rating, Ducksalad (0 to 10 scale, 0 is no effect, 10 is complete control) (duck salad; [9]): 0
Ducksalad plant response rating (0 to 10 scale, 0 is no effect, 10 is complete control) (duck salad; [10]): 0
Ducksalad plant response rating (duck salad; [11]): 0
Ducksalad plant response rating (duck salad; [12]): 0
Plant response rating, Soybean (soybean; [1]): 2
Soybean plant response rating (soybean; [2]): 3
Soybean plant response rating (soybean; [5]): 0
Soybean plant response rating (soybean; [6]): 0
Plant response rating, Soybean (soybean; [7]): 1
Plant response rating, Soybean (soybean; [8]): 1
Plant response rating, Blackgrass (blackgrass; [1]): 6
Blackgrass plant response rating (blackgrass; [3]): 7
Plant response rating, Blackgrass (blackgrass; [4]): 8
Blackgrass plant response rating (blackgrass; [5]): 7
Blackgrass plant response rating (blackgrass; [6]): 9
Plant response rating, Blackgrass (blackgrass; [7]): 10
Plant response rating, Blackgrass (blackgrass; [8]): 10
Plant response rating, S. Flatsedge (0 to 10 scale, 0 is no effect, 10 is complete control) (smallflower flatsedge; [9]): 0
S. Flatsedge plant response rating (0 to 10 scale, 0 is no effect, 10 is complete control) (smallflower flatsedge; [10]): 0
S. Flatsedge plant response rating (smallflower flatsedge; [11]): 0
S. Flatsedge plant response rating (smallflower flatsedge; [12]): 0
Plant response rating, Cocklebur (cocklebur; [1]): 0
Cocklebur plant response rating (cocklebur; [2]): 0
Cocklebur plant response rating (cocklebur; [3]): 4
Plant response rating, Cocklebur (cocklebur; [4]): 4
Cocklebur plant response rating (cocklebur; [5]): 0
Cocklebur plant response rating (cocklebur; [6]): 0
Plant response rating, Cocklebur (cocklebur; [7]): 1
Plant response rating, Cocklebur (cocklebur; [8]): 7
